Results reported in patent US8318808B2, “Zn2+chelating motif-tethered short-chain fatty acids as a novel class of histone deacetylase inhibitors” (The Ohio State University Research Foundation, priority 2007, dated 2012).
Where two headings read alike, the source gives them in different places.

How the values were obtained:
[1] = biological target: histone deacetylase (HDAC) activity of DU-145 nuclear extract; assay: In vitro HDAC assay (histone deacetylase assay kit, [3H]-acetyl histone H4 peptide); assay type: biochemical
Description: In vitro HDAC assay. HDAC activity was analyzed by using a histone deacetylase assay kit (Upstate Biotechnology, Lake Placid, N.Y.) by following the manufacturer's instruction with slight modifications. […] The release of [^3 H]-acetate into the supernatant was measured to calculate the HDAC activity. Sodium butyrate (0.25-1 mM) was used as a positive control.

[2] = test system: acetylated histones H3 and H4 and p21WAF/CIP1 in DU-145 cells; assay: Western blot of histone acetylation and p21WAF/CIP1 expression in DU-145 cells; assay type: cell-based; details: for levels of acetylated histones H3 and H4, and p21WAF/CIP1: 10% FBS, HTPB 0.5-[…], TSA 0.25-0.5 μM, phenylbutyrate 1-5 mM
Description: Western blot analysis. DU-145 cells (1×10^6) treated with HTPB at the indicated concentrations in 10% FBS-supplemented RPMI 1640 medium for 24 h were collected, and sonicated. Protein concentrations of the lysates were determined by using a Bradford protein assay kit (Bio-Rad, Hercules, Calif.); equivalent amounts of proteins from each lysate were resolved in 10% SDS-polyacrylamide gel, and then transferred onto Immobilon-nitrocellulose membranes (Millipore, Bellerica, Mass.) in a semi-dry transfer cell. The transblotted membrane was washed twice with Tris-buffered saline (TBS) containing 0.1% Tween 20 (TBST). After blocking with TBST containing 5% nonfat milk for 40 min, the membrane was incubated with the primary antibody (1:1000 dilution) in TBST-1% nonfat milk at 4° C. overnight. After treatment with the primary antibody, the membrane was washed three times with TBST for a total of 15 min, followed by goat anti-rabbit or anti-mouse IgG-horseradish peroxidase conjugates (diluted 1:3000) for 1 h at room temperature and wash three times with TBST for a total of 1 h. The immunoblots were visualized by enhanced chemiluminescence.
DU-145 cells were exposed to HTPB at 0.5, 1, 2.5 μM, TSA at 0.25 and 0.5 μM, or phenylbutyrate at 1, 2.5, and 5 mM in 10% FBS-supplemented RPMI 1640 medium for 24 h. […] The effect of 1 μM HTPB on these biomarkers approximated that of 0.25 μM TSA, or 2.5 mM phenylbutyrate.

DU-145 cells [3] = assay: Cell viability assay (MTT); assay type: cell-based; details: Homo sapiens, 10% FBS-supplemented RPMI-1640, read-out: IC50 in growth inhibition
Description: Cell viability assay. The effect of HTPB on cell viability was assessed by the MTT {[3-(4,5-dimethylthiazol-2-yl)-2,5-diphenyl-2 H-tetrazolium bromide]} assay in 96-well, flat-bottomed plates, in which 4,000 DU-145 cells/well were seeded. Cells were exposed to HTPB at the indicated concentrations in 10% FBS-supplemented RPMI-1640 medium at 37° C. in 5% CO2 for the indicated time. The medium was removed and replaced by 150 μl of 0.5 mg/ml of MTT in RPMI-1640 medium, and cells were incubated in the CO2 incubator at 37° C. for 2 hours. Supernatants were removed from the wells, and the reduced MTT dye was solubilized with 200 μl/well DMSO. Absorbance was determined on a plate reader at 570 nm. Each treatment was repeated in six wells.

DU-145 cells [4] = assay: Apoptosis detection by Cell Death ELISA (nucleosomal DNA); assay type: cell-based
Description: Apoptosis Detection by An Enzyme-Linked Immunosorbent Assay (ELISA). Induction of apoptosis was assessed by using a Cell Death ELISA (Roche Diagnostics, Mannheim, Germany) by following the manufacturer's instruction. This test is based on the quantitative determination of cytoplasmic histone-associated DNA fragments in the form of mononucleosomes and oligonucleosomes after induced apoptotic death. In brief, 1×10^6 DU-145 cells were cultured in a T-75 flask 24 h prior to the experiment. Cells were treated with HTPB at the indicated concentrations in 10% FBS-supplemented RPMI 1640 medium. Both floating and adherent cells were collected, cell lysates equivalent to 2×10^3 cells were used in the ELISA.

PC-3 xenograft tumors = assay: Growth of established subcutaneous PC-3 xenograft tumors; details: for suppression of growth of established PC-3 tumors: oral route, 50 and 100 mg/kg/day (either dose); for reduction in the growth of the tumors vs vehicle-treated control: 50 mg/kg/day
Description: In the in vivo experiment, PC-3 cells, suspended in equal volumes of serum-free medium and Matrigel basement membrane matrix, were injected subcutaneously into the flanks of 5-7 week old male NCr athymic nude mice (nu/nu) (0.5×10^6 cells/0.1 ml/mouse). […] The control group received p.o. or i.p. vehicle only (0.1% methylcellulose/0.05% Tween 80 in water and DMSO, respectively). Treatments continued until the mean tumor volume of the control group reached approximately 1,500 mm^3. Tumors were measured every week using Vernier calipers and their volumes calculated using a standard formula: width^2×length×0.52.

PC-3 cells = assay: cells; details: Homo sapiens, PC-3, 72 h, read-out: IC50, PC-3 cell proliferation
[5] = Toxicity, body weights and pathological evaluation of treated tumor-bearing mice; assay type: in vivo, NCr athymic nude mice (nu/nu); details: for body weights: measured weekly, compound 42 or 44 oral 50 and 100 mg/kg/day, SAHA i.p. 50 mg/kg/day
Description: At the conclusion of the study, complete pathological evaluation of one mouse from each treatment group was performed by board-certified veterinary pathologists at The Ohio State University College of Veterinary Medicine, which included clinical pathology (hematology, serum chemistries) and complete necropsy (gross and microscopic examination of at least 27 different tissues and organs). […] Hematological parameters were within normal limits except for a neutrophilia, which was observed only in mice from both vehicle-treated control groups and the SAHA- and compound 44 (50 mg/kg)-treated groups. Serum chemistry values were consistent with mild dehydration in the vehicle-treated mice, but were within normal limits for all other mice.

[6] = test system: acetylation of histone H-3 in PC-3 xenograft tumors; assay: Western blot of acetylated histone H3 in PC-3 xenograft tumor homogenates; assay type: in vivo, mice; details: 28 days
[7] = test system: phospho-Akt in PC-3 cells (PTEN-/-); assay: Activation status of Akt in PC-3 cells; assay type: cell-based; details: comparable concentrations
Description: The effect of these agents on the activation status of Akt in PC-3 cells (PTEN^−/−) was also examined. Akt is constitutively activated in PC-3 cells due to lack of functional PTEN, which contributes to the androgen independency and chemotherapeutic resistance of these cells.

JNK = assay: Phosphorylation level of JNK in PC-3 cells; assay type: cell-based
Description: (§1) This dephosphorylating effect, however, is kinase-specific.

[8] = test system: chronic lymphocytic leukemia (TLC-1 transgenic mouse model); assay: Pilot in vivo study in TLC-1 transgenic mouse model; details: 100 mg/kg oral gavage, 5 days on/two days off for 4 weeks
ERKs = assay: Phosphorylation level of ERKs in PC-3 cells; assay type: cell-based
Description: as §1

[9] = test system: FAK (focal adhesion kinase); assay: Phosphorylation level of FAK in PC-3 cells; assay type: cell-based
Description: as §1

p38 = assay: Phosphorylation level of p38 in PC-3 cells; assay type: cell-based
Description: as §1

60 cell lines = assay: Sixty-cell line screening by the NCI Developmental Therapeutics Program; assay type: cell-based; details: average against all 60 cell lines; read-out: average GI50 (50% inhibition of cell growth)
[10] = DU-145 nuclear extract, read-out: HDAC inhibition IC50
[11] = Table 1, representative phenylbutyrate-based HDAC inhibitors, read-out: IC50
[12] = parent short-chain fatty acid, read-out: HDAC inhibition IC50
[13] = DU-145 nuclear extract, running text, read-out: HDAC inhibition IC50
[14] = i.p., 50 mg/kg/day, one mouse per group

Nc1ccccc1NC(=O)c1ccc(NC(=O)CCCc2ccccc2)cc1 [compound 55, N-(2-Amino-phenyl)-4-(4-phenyl-butyrylamino)-benzamide]
IC50 [1, 10]: 400 nM
drop in HDAC inhibitory potency when hydroxamate of compound 19 is replaced by phenylenediamine ([1]; relative to compound 19): 10 fold

CC[C@@H](C(=O)Nc1ccc(C(=O)NO)cc1)c1ccccc1 [compound 61, N-hydroxy-4-[2-(R)-phenylbutyrylamino]-benzamide]
IC50 [1, 11]: 38 nM

CCCC(CCC)C(=O)O [valproic acid, reference compound]
IC50 [1, 12]: 400000 nM

CCCC(CCC)C(=O)Nc1ccc(CCC(=O)NO)cc1 [compound 8]
IC50 [1, 10]: 5000 nM

O=C(CCCc1ccccc1)Nc1ccc(C(=O)NO)cc1 [compound 19, N-Hydroxy-4-(4-phenylbutyrylamino)-benzamide]
IC50 [1, 10]: 44 nM
IC50 [1, 13]: 44 nM
IC50 [1, 11]: 44 nM
concentration causing hyperacetylation of histones H-3 and H-4 (as low as) [2]: ≤ 0.5 µM
concentration at which p21WAF/CIP1 level increased substantially (as low as) ([2]; 24 h): ≤ 0.5 µM
concentration with approximately equal effect on acetylated histones H3/H4 and p21WAF/CIP1 ([2]; 24 h): 1 µM
levels of acetylated histones H3 and H4, and p21WAF/CIP1 ([2]; 24 h): elevated levels
IC50 (DU-145 cells [3]): 500 to 1000 nM
drug concentration above which extensive apoptosis occurred (DU-145 cells [4]; 24 h): exceeded 1 μM
apoptosis (DNA fragmentation) (DU-145 cells [4]; 24 h exposure): sensitized DU-145 cells to apoptosis in a dose-dependent manner

CC(/C=C/C(=O)NO)=C\[C@@H](C)C(=O)c1ccc(N(C)C)cc1 [TSA, trichostatin A]
concentration with approximately equal effect on acetylated histones H3/H4 and p21WAF/CIP1 ([2]; 24 h): 0.25 µM
levels of acetylated histones H3 and H4, and p21WAF/CIP1 ([2]; 24 h): elevated levels

CC(C)(CCc1ccccc1)C(=O)Nc1ccc(C(=O)NO)cc1 [compound 44, 4-(2,2-Dimethyl-4-phenyl-butyrylamino)-N-hydroxy-benzamide]
IC50 [1, 13]: 32 nM
suppression of growth of established PC-3 tumors (PC-3 xenograft tumors): effective
IC50 (PC-3 cells): 800 nM
body weights [5]: stable throughout the study
hematological parameters ([5]; oral, 50 mg/kg, one mouse per group): neutrophilia

O=C(CCCCCCC(=O)Nc1ccccc1)NO [SAHA, suberoylanilide hydroxamic acid, reference compound]
reduction in the growth of the tumors vs vehicle-treated control (PC-3 xenograft tumors; i.p.): 69.9%
acetylation level of histone H3 in PC-3 tumors ([6]; i.p., 50 mg/kg/day): significant increase
gross pathologic abnormalities at necropsy [5, 14]: small adhesions in the peritoneum
hematological parameters [5, 14]: neutrophilia
body weights [5]: stable throughout the study
effect on phospho-Akt [7]: no appreciable effect

CC(C)C(C(=O)Nc1ccc(C(=O)NO)cc1)c1ccccc1 (stereo not drawn) [compound 42, N-Hydroxy-4-(3-methyl-2-phenyl-butyrylamino)-benzamide]
phosphorylation level of JNK (JNK): remained unaffected
survival [8]: trend toward improved survival
toxicity [8]: no notable toxicity
phosphorylation level of ERKs (ERKs): diminished in a dose-dependent manner
oral bioavailability (PC-3 xenograft tumors; mouse, in vivo, po): orally bioavailable
suppression of growth of established PC-3 tumors (PC-3 xenograft tumors): effective
reduction in the growth of the tumors vs vehicle-treated control (PC-3 xenograft tumors; oral): 70.4%
reduction in PC-3 tumor growth (PC-3 xenograft tumors; oral, 100 mg/kg/day): 91.7%
IC50 (PC-3 cells): 600 nM
acetylation level of histone H3 in PC-3 tumors ([6]; oral, 50 or 100 mg/kg/day): significant increase
phosphorylation level of FAK [9]: diminished in a dose-dependent manner
toxicity in tumor-bearing mice ([5]; 28-day course at 50 or 100 mg/kg/day): no demonstrable toxicity
body weights [5]: stable throughout the study
overt toxicity (body weights and pathological examination) ([5]; oral, 100 mg/kg/day): absence of overt toxicity
phosphorylation level of p38 (p38): remained unaffected
GI50 (60 cell lines): 200 nM

phenylbutyrate
IC50 [1, 12]: 400000 nM
concentration required for the same effects on histone acetylation and p21WAF/CIP1 expression [2]: at least 2.5 mM
concentration with approximately equal effect on acetylated histones H3/H4 and p21WAF/CIP1 ([2]; 24 h): 2500 µM
levels of acetylated histones H3 and H4, and p21WAF/CIP1 ([2]; 24 h): elevated levels
